# How the values were obtained:
# [1] = Aerobic stability of grass silage (method of Honig); set-up: species or system ryegrass
# Procedure: Second cut ryegrass was harvested at PLNC. The grass was determined to have an approximate dry matter of 35%.
# Inoculation: Individual strains were supplied as fresh grown overnight culture. Cultures were adjusted to a standard concentration of 5.0×10^7 CFU/mL and applied using a syringe at a rate of 2.2 mL/kg of forage. The application rate for all strains was 1.1×10^5 CFU/g forage. Propionic acid (88%) was applied at a rate of 4.4 mL/kg fresh forage.
# PVC Silos: PVC silos were filled at a packing density of 0.288 kg DM/silo (100 kg DM/m^3); approximately 0.82-0.95 kg/silo. Silos were air infused for 24 hours on days 28 and 42, and opened after 50-60 days of ensiling.
# Aerobic Stability: The method of Honig (Proc. Of the Eurobac. Conf., P. Lingvall and S. Lindgren (ed.) (12-16 Aug. 1986) Swed. Univ. of Agric. Sci. Grass and Forage Report No. 3-1990. Pp. 76-81. Uppsala, Sweden.) was used for measuring aerobic stability (see Table 1). ROT is defined as the time, in hours, for the silage to heat 1.7° C. after exposure to air. Cumm_DD is the integral value of the area between the time ROT is attained and the end of the experiment. Aerobic dry matter loss (% dry matter) was determined relating the increase in temperature and the time to energy losses occurring in the silage.
# [2] = pH of grass silage after ensiling; assay type: physicochemical, ryegrass; conditions: for pH: PVC silos
# Procedure: Second cut ryegrass was harvested at PLNC. The grass was determined to have an approximate dry matter of 35%. Inoculation: Individual strains were supplied as fresh grown overnight culture. Cultures were adjusted to a standard concentration of 5.0×10^7 CFU/mL and applied using a syringe at a rate of 2.2 mL/kg of forage. The application rate for all strains was 1.1×10^5 CFU/g forage. Propionic acid (88%) was applied at a rate of 4.4 mL/kg fresh forage. PVC Silos: PVC silos were filled at a packing density of 0.288 kg DM/silo (100 kg DM/m^3); approximately 0.82-0.95 kg/silo. Silos were air infused for 24 hours on days 28 and 42, and opened after 50-60 days of ensiling.
# [3] = average across replicate studies A, B, C
smiles,measurement,setting,value
"CCC(=O)O [Propionic Acid, Propionic acid]",Aerobic deterioration compared with control grass silages,[1],significantly less aerobic deterioration than the control
same,Improvement of aerobic stability over the control,"[1]; LN5689 1.1×10^5 CFU/g forage, propionic acid (88%) 4.4 mL/kg",96 h
same,Aerobic Dry Matter Loss Avg.,[1]; [3],0.43 % dry matter
same,ROT Avg.,[1]; [3],127 h
same,Aerobic Dry Matter Loss,[1]; replicate study A,0.29 % dry matter
same,ROT (time for the silage to heat 1.7° C. after exposure to air),[1]; replicate study A,137 h
same,Aerobic Dry Matter Loss,[1]; replicate study B,0 % dry matter
same,ROT (time for the silage to heat 1.7° C. after exposure to air),[1]; replicate study B,160 h
same,Aerobic Dry Matter Loss,[1]; replicate study C,1.01 % dry matter
same,ROT (time for the silage to heat 1.7° C. after exposure to air),[1]; replicate study C,86 h
same,pH,[2]; replicate study A,4.03
same,pH,[2]; replicate study B,4.17
same,pH,[2]; replicate study C,4.18
same,pH Avg.,[2]; [3],4.13
